Values quoted from earlier work in paper PMC4278936 (Journal of computer-aided molecular design, 2014).

Target: T1, PfENR (Plasmodium falciparum, UniProt Q9BH77)
T1 sequence (Q9BH77 22-432): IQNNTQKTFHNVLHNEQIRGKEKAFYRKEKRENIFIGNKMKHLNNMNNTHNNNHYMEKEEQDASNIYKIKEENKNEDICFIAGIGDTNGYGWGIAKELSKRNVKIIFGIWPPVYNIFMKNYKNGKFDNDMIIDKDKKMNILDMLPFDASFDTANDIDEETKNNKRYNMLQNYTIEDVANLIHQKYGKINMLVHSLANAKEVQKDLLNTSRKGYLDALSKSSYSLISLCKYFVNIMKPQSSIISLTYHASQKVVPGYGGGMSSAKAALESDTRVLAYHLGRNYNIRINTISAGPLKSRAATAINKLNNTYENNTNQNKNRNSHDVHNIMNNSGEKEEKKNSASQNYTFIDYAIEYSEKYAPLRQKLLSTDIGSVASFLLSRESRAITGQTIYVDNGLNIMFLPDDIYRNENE
Conditions: ref [32], [60]

Oc1cc(Cl)ccc1Oc1ccc(Cl)cc1Cl [compound 1, Triclosan]
Concentration range in which TCL inhibits PfENR: picomolar to nanomolar range
